Columns and labels:
[1] = molecular target: Protein arginine N-methyltransferase 1 (Homo sapiens, UniProt Q99873); assay: Selectivity interaction (Scintillation proximity assay) EUB0000261b PRMT1
[2] = molecular target: Protein arginine N-methyltransferase 3 (Homo sapiens, UniProt O60678); assay: Selectivity interaction (Scintillation proximity assay) EUB0000261b PRMT3
[3] = molecular target: T1, Histone-arginine methyltransferase CARM1 (Homo sapiens, UniProt Q86X55); assay: Selectivity interaction (Scintillation proximity assay) EUB0000261b CARM1
T1 sequence (Q86X55 whole entry): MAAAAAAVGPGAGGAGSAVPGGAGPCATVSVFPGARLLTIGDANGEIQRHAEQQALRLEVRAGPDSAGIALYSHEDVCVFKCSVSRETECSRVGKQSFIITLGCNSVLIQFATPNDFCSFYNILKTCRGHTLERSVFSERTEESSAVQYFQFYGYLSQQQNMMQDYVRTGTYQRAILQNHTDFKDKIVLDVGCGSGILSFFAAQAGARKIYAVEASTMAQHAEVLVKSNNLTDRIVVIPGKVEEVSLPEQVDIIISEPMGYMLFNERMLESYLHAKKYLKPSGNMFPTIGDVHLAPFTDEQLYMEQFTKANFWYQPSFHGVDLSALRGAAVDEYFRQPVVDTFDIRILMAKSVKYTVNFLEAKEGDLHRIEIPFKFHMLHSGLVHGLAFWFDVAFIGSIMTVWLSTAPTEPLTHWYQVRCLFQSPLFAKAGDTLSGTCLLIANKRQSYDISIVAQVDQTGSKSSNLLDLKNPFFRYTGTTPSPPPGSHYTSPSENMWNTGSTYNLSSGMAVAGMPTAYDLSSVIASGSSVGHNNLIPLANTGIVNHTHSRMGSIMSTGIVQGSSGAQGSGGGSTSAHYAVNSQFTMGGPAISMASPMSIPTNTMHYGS

[4] = molecular target: Protein arginine N-methyltransferase 6 (Homo sapiens, UniProt Q96LA8); assay: Selectivity interaction (Scintillation proximity assay) EUB0000261b PRMT6
Chain of Protein arginine N-methyltransferase 6 (Q96LA8 whole entry): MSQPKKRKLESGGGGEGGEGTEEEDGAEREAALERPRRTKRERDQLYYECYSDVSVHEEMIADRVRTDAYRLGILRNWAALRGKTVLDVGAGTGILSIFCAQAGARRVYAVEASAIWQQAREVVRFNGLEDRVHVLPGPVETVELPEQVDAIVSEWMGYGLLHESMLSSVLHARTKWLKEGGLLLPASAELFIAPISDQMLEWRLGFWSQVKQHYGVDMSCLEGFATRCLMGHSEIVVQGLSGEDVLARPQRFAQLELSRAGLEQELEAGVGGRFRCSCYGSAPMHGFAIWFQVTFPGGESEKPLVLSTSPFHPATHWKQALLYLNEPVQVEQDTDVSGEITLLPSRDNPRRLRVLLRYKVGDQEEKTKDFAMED

[5] = molecular target: Protein arginine N-methyltransferase 8 (Homo sapiens, UniProt Q9NR22); assay: Selectivity interaction (Scintillation proximity assay) EUB0000261b PRMT8
Chain of Protein arginine N-methyltransferase 8 (Q9NR22 whole entry): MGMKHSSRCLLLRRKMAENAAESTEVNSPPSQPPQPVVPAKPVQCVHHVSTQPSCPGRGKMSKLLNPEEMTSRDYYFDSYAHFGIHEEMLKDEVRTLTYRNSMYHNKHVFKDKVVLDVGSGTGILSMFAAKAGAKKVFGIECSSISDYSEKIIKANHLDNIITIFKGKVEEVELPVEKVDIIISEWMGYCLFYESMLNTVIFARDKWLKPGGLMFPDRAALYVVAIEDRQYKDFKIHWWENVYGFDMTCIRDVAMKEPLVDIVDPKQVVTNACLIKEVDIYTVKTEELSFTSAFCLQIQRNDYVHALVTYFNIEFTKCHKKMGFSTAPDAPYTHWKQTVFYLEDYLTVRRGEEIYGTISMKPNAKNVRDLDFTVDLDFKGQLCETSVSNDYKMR

Measured: IC50

Chain of Protein arginine N-methyltransferase 1 (Q99873 whole entry): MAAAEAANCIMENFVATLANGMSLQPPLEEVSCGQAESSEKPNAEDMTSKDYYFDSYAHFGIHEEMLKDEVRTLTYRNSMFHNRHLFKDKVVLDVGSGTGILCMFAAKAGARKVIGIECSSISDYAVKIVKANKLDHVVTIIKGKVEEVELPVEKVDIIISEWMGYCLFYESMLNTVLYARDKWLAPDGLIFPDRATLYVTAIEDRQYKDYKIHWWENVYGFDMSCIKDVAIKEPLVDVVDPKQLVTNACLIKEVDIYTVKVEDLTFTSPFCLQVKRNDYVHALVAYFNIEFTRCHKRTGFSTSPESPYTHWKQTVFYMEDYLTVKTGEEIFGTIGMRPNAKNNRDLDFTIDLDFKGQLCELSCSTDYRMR
Chain of Protein arginine N-methyltransferase 3 (O60678 whole entry): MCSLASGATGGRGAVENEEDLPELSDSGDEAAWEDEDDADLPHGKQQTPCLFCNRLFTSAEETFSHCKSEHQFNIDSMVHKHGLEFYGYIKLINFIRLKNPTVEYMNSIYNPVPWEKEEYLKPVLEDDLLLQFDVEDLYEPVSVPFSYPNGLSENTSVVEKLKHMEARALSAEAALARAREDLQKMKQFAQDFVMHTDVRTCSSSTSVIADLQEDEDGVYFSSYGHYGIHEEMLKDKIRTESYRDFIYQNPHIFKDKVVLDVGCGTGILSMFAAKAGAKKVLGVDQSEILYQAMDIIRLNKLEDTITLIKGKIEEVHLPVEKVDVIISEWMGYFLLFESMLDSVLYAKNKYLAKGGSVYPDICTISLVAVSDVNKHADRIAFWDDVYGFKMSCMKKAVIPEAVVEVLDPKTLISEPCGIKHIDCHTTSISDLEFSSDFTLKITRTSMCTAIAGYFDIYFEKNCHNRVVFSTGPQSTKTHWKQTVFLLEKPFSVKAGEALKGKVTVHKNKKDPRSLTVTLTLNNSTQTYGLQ

CC(C)Oc1ccc(-c2c[nH]cc2CN(C)CCO)cc1
> 20 µM: all assays above

Source: ChEMBL document CHEMBL5465560, “Selectivity Literature for EUbOPEN Chemogenomic Library” (2024)
